From patent US12187742B2 (XRAD Therapeutics, Inc., priority 2018, dated 2025) come the findings set out here.

Counter-ions that a name gives are not always drawn.

Assay [1] concerns the target DNA-PK (Homo sapiens (Human), UniProt P78527). The assay can be described thus: DNA-PK Enzyme-Linked Immunosorbent Assay (phosphorylation of GST-p53 (1-101) peptide). Particulars: ELISA, ATP 20 μM. It is filed as biochemical. In outline:
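Inhibition measured by 450 nm absorbance after HRP/TMB detection of phospho-Ser15 on immobilized GST-p53 (1-101). The kinase reaction used 0.1 μg/mL DNA-PK and 20 μM ATP, 1 h at 25 °C. Ten 3-fold compound dilutions, top final concentration 100 nM.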
On the technique in general: An ELISA detects its analyte on a solid surface through an enzyme-linked reagent.

In assay [2] the target is ATM (Homo sapiens (Human), UniProt Q13315). Nature of the assay: ATM in Cell Western Assay (pKAP1 in etoposide-treated MCF-7 cells). It is filed as cell-based. The conditions noted are these: MCF-7 cells, etoposide 100 μM, 1 hr, pKAP1 readout. The method, boiled down: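 After paraformaldehyde fixation and Triton X-100 permeabilization, immunostained plates were read by infrared scanning (ODYSSEY CLx). Compound was given as 10 doses, 3-fold dilutions from a 1 μM final top concentration.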
Sequence of ATM (Q13315 whole entry): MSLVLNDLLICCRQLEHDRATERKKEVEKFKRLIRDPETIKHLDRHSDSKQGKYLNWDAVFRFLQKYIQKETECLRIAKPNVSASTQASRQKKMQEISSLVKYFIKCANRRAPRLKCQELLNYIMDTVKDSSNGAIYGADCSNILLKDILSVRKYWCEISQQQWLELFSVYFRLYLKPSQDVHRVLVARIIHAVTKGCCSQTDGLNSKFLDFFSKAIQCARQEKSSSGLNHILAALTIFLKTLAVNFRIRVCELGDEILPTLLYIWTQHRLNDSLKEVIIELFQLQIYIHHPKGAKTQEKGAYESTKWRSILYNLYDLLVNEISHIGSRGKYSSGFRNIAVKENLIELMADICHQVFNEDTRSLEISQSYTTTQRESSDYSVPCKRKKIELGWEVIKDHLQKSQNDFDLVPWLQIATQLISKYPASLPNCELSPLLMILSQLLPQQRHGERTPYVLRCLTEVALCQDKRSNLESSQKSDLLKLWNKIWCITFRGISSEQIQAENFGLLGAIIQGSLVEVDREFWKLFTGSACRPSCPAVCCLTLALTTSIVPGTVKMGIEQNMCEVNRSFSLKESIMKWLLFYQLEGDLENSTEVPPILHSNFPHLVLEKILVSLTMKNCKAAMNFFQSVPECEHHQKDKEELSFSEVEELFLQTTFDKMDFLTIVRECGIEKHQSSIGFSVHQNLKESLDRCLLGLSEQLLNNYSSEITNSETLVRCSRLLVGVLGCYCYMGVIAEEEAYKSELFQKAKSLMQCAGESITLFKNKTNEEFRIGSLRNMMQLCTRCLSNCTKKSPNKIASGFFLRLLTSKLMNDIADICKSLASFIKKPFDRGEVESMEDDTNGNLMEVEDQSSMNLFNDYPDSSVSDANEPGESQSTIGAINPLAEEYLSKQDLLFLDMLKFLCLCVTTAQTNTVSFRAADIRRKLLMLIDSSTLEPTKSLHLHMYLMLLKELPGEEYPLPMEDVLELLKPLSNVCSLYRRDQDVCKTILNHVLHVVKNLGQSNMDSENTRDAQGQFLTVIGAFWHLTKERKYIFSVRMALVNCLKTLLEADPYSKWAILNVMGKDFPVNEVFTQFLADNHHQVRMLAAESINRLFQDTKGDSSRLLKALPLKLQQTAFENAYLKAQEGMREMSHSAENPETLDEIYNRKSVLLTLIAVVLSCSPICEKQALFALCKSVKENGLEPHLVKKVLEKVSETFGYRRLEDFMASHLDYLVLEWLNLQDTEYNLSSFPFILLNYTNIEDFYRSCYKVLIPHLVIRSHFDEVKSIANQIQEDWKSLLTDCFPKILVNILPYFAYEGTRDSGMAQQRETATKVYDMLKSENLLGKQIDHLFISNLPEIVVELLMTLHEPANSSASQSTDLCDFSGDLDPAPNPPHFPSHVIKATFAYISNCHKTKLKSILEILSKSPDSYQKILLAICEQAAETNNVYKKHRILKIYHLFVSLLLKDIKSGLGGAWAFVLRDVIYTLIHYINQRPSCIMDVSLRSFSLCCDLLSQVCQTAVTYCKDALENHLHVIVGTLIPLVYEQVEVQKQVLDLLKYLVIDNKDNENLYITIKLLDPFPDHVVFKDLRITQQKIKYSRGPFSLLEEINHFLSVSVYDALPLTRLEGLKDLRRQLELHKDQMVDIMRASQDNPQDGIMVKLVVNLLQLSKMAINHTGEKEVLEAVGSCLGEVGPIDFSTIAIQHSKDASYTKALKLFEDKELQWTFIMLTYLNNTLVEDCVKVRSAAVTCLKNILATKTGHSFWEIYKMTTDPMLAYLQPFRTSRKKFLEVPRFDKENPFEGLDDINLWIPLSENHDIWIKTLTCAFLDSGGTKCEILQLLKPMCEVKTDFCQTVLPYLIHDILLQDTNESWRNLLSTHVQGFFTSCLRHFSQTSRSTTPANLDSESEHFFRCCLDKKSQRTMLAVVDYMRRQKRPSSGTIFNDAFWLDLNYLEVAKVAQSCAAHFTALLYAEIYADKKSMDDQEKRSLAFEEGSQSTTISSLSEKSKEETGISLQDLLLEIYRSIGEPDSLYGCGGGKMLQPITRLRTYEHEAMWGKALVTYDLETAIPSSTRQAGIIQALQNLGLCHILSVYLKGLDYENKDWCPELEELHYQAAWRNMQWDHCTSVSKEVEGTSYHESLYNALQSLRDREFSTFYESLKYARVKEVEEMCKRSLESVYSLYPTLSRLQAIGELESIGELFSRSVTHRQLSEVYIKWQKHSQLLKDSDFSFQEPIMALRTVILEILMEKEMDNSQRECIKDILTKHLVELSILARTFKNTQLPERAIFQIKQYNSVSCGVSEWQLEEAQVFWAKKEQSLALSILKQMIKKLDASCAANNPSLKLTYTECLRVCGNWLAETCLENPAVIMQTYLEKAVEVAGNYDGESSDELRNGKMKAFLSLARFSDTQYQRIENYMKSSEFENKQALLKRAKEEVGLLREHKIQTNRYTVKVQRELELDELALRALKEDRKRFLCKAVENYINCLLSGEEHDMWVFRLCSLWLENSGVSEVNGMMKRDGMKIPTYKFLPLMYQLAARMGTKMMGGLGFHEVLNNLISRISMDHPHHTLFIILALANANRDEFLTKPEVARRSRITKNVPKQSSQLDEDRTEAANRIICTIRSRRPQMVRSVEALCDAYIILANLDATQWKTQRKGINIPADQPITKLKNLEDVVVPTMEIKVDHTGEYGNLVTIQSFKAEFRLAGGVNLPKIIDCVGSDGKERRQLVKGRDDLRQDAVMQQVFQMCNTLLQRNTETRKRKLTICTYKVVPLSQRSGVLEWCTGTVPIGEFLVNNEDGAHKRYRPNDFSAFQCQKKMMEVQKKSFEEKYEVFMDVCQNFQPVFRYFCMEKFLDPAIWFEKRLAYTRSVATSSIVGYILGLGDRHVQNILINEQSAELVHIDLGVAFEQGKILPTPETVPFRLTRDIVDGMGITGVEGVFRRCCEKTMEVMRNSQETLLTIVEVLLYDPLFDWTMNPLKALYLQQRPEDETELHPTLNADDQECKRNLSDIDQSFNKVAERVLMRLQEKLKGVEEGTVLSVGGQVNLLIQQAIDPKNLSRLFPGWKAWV

As for `Cc1ccc(S(=O)(=O)Nc2cc(-c3ccc4ncc5c(c4c3)C3(CCC3)C(=O)N5C)cnc2N2CCC(N(C)C)CC2)cc1` [Example 178, N-(2-(4-(Dimethylamino)piperidin-1-yl)-5-(3′-methyl-2′-oxo-2′,3′-dihydrospiro[cyclobutane-1,1′-pyrrolo[2,3-c]quinolin]-8′-yl)pyridin-3-yl)-4-methylbenzenesulfonamide 2,2,2-trifluoroacetate], the IC50 (as a rule, the concentration that gives 50% inhibition) in assay [1] was under 0.5 nM; in assay [2], 1 to 100 nM.
With `CN1C(=O)C2(CCC2)c2c1cnc1ccc(-c3cnc(OCCCN4CCCCC4)c(NS(=O)(=O)N(C)C)c3)cc21` [Example 180, hydrochloride], the IC50 in assay [1] was in the range of 0.5 to 1 nM; in assay [2], 1 to 100 nM.
The corresponding values for `COCCN(CCOC)S(=O)(=O)Nc1cc(-c2ccc3ncc4c(c3c2)C2(CCC2)C(=O)N4C)cnc1OCCCN(C)C` [Example 181, 8′-(5-{[Bis(2-methoxyethyl)sulfamoyl]amino}-6-[3-(dimethylamino)propoxy]pyridine-3-yl)-3′-methyl-2′,3′-dihydrospiro [cyclobutane-1,1′-pyrrolo[2,3-c]quinoline]-2′-one] are 1 to 100 nM and 1 to 100 nM.
The matching figures for `CCN(CC)S(=O)(=O)Nc1cc(-c2ccc3ncc4c(c3c2)C2(CCC2)C(=O)N4C)cnc1OCCCN(C)C` [Example 183, 8′-{5-[(Diethylsulfanioyl)amino]-6-[3-(dimethylamino)propoxy]pyridine-3-yl}-3′-methyl-2′,3′-dihydrospiro [cyclobutane-1,1′-pyrrolo[2,3-c]quinoline]-2′-one]: 1 to 100 nM and 1 to 100 nM.
As for `CC1CN(S(=O)(=O)Nc2cc(-c3ccc4ncc5c(c4c3)C3(CCC3)C(=O)N5C)cnc2OCCCN(C)C)CC(C)O1` (centres unmarked) [Example 184, N-(2-(3-(Dimethylamino)propoxy)-5-(3′-methyl-2′-oxo-2′,3′-dihydrospiro[cyclobutane-1,1′-pyrrolo[2,3-c]quinolin]-8′-yl)pyridin-3-yl)-2,6-dimethylmorpholine-4-sulfonamide], the IC50 in assay [1] and in assay [2] was 1 to 100 nM throughout.
Regarding `Cc1ccc(S(=O)(=O)Nc2cc(-c3ccc4ncc5c(c4c3)C3(CCC3)C(=O)N5C)cnc2N2CCC(N(C)C)CC2)cn1` [Example 185, N-(2-(4-(Dimethylamino)piperidin-1-yl)-5-(3′-methyl-2′-oxo-2′,3′-dihydrospiro[cyclobutane-1,1′-pyrrolo[2,3-c]quinolin]-8′-yl)pyridin-3-yl)-6-methylpyridine-3-sulfonamide hydrochloride], the IC50 in assay [1] lay in the range of 0.5 to 1 nM; in assay [2], 1 to 100 nM.
On to `CN(C)CCCOc1ncc(-c2ccc3ncc4c(c3c2)C2(CCC2)C(=O)N4C)cc1NS(=O)(=O)c1ccc(C(F)(F)F)cc1` [Example 186, N-(2-(3-(Dimethylamino)propoxy)-5-(3′-methyl-2′-oxo-2′,3′-dihydrospiro[cyclobutane-1,1′-pyrrolo[2,3-c]quinolin]-8′-yl)pyridin-3-yl)-4-(trifluoromethyl)benzenesulfonamide hydrochloride], for which the IC50 in assay [1] and in assay [2] was 1 to 100 nM in each case.
On to `COC1CCN(S(=O)(=O)Nc2cc(-c3ccc4ncc5c(c4c3)C3(CCC3)C(=O)N5C)cnc2OCCCN(C)C)CC1` [Example 187, N-(2-(3-(Dimethylamino)propoxy)-5-(3′-methyl-2′-oxo-2′,3′-dihydrospiro[cyclobulane-1,1′-pyrrolo[2,3-c]quinolin]-8′-yl)pyridin-3-yl)-4-methoxypiperidine-1-sulfonamide], for which the IC50 in assay [1] and in assay [2] was 1 to 100 nM each time.
For `CN(C)CCCOc1ncc(-c2ccc3ncc4c(c3c2)C2(CCC2)C(=O)N4C)cc1NS(=O)(=O)c1ccns1` [Example 188, N-(2-(3-(Dimethylamino)propoxy)-5-(3′-methyl-2′-oxo-2′,3′-dihydrospiro [cyclobutane-1,1′-pyrrolo [2,3-c]quinolin]-8′-yl)pyridin-3-yl) isothiazole-5-sulfonamide hydrochloride], the 50% inhibitory concentration (IC50) is under 0.5 nM in assay [1] and 1 to 100 nM in assay [2].
Consider `CN(C)CCCOc1ncc(-c2ccc3ncc4c(c3c2)C2(CCC2)C(=O)N4C)cc1NS(C)(=O)=O` [Example 189, N-(2-(3-(Dimethylamino)propoxy)-5-(3′-methyl-2′-oxo-2′,3′-dihydrospiro [cyclobulane-1,1′-pyrrolo[2,3-c]quinolin]-8′-yl)pyridin-3-yl) methanesulfonamide], for which the results for the concentration for half-maximal inhibition (IC50) in assay [1] and in assay [2] were under 0.5 nM and 1 to 100 nM, respectively.
Take `CN(C)CCCOc1ncc(-c2ccc3ncc4c(c3c2)C2(CCC2)C(=O)N4C)cc1NS(=O)(=O)C1CC1` [Example 190, N-(2-(3-(Dimethylamino)propoxy)-5-(3′-methyl-2′-oxo-2′,3′-dihydrospiro[cyclobulane-1,1′-pyrrolo[2,3-c]quinolin]-8′-yl)pyridin-3-yl)cyclopropanesulfonamide]: the IC50 in assay [1] and in assay [2] was 1 to 100 nM throughout.
As to `Cc1ccc(S(=O)(=O)Nc2cc(-c3ccc4ncc5c(c4c3)C3(CCC3)C(=O)N5C)cnc2N2CCC(N3CCCCC3)CC2)cc1` [Example 192, N-(2-(1,4-Bipiperidin]-1′-yl)-5-(3′-methyl-2′-oxo-2′,3′-dihydrospiro[cyclobulane-1,1′-pyrrolo[2,3-c]quinolin]-8′-yl)pyridin-3-yl)-4-methylbenzenesulfonamide hydrochloride], the IC50 in assay [1] and in assay [2] was 1 to 100 nM throughout.
Turning to `CN1C(=O)C2(CCC2)c2c1cnc1ccc(-c3cnc(OCCCN4CCCCC4)c(NS(=O)(=O)c4cscn4)c3)cc21` [Example 193, N-(5-(3′-Methyl-2′-oxo-2′,3′-dihydrospiro[cyclobutane-1,1′-pyrrolo[2,3-c]quinolin]-8′-yl)-2-(3-(piperidin-1-yl)propoxy)pyridin-3-yl)thiazole-4-sulfonamide hydrochloride], the IC50 was in the range of 0.5 to 1 nM in assay [1] and 1 to 100 nM in assay [2].
For `Cc1cc(S(=O)(=O)Nc2cc(-c3ccc4ncc5c(c4c3)C3(CCC3)C(=O)N5C)cnc2OCCCN2CCCCC2)sn1` [Example 194, 3-Methyl-N-(5-(3′-methyl-2′-oxo-2′,3′-dihydrospiro[cyclobutane-1,1′-pyrrolo[2,3-c]quinolin]-8′-yl)-2-(3-(piperidin-1-yl)propoxy)pyridin-3-yl)isothiazole-5-sulfonamide hydrochloride], the IC50 is under 0.5 nM in assay [1] and 1 to 100 nM in assay [2].
Turning to `CN1C(=O)C2(CCC2)c2c1cnc1ccc(-c3cnc(OCCCN4CCCCC4)c(NS(=O)(=O)c4ccccc4F)c3)cc21` [Example 195, 2-Fluoro-N-(5-(3′-methyl-2′-oxo-2′,3′-dihydrospiro[cyclobutane-1,1′-pyrrolo[2,3-c]quinolin]-8′-yl)-2-(3-(piperidin-1-yl)propoxy)pyridin-3-yl) benzenesulfonamide hydrochloride], the values for the IC50 in assay [1] and in assay [2] were 0.5 to 1 nM and 1 to 100 nM, respectively.
The matching figures for `CN1C(=O)C2(CCC2)c2c1cnc1ccc(-c3cnc(OCCCN4CCCCC4)c(NS(=O)(=O)c4cc(F)cc(Cl)c4)c3)cc21` [Example 196, 3-Chloro-5-fluoro-N-(5-(3′-methyl-2′-oxo-2′,3′-dihydrospiro[cyclobulane-1,1′-pyrrolo[2,3-c]quinolin]-8′-yl)-2-(3-(piperidin-1-yl)propoxy)pyridin-3-yl)benzenesulfonamide hydrochloride]: 1 to 100 nM and 1 to 100 nM.
